Source: publication PMC11747885, “Potent inhibitors of the human RNA ligase Rlig1 highlights its role in RNA integrity maintenance under oxidative cellular stress” (Chemical Science, 2025)
Several values for one entry are separate records, joined by “and”; a condition that tells them apart may be missing. Equal values may be shown once. Read-outs that look alike come from different tables or passages of the source. One block for each compound: values may come before it.

Experiments:
Rlig1-AMP [1] = target: T1, Rlig1-AMP (Homo sapiens, UniProt Q8N999); assay: FRET-based high-throughput screening of inhibitors for Rlig1-AMP; format: biochemical; conditions: for 1-D Distance / Raw data [w Enyzm] / Raw data [w/o Enzym] / 1-D Distance.npi: HTS hits; for Raw data [w Enyzm]: with enzyme; for Raw data [w/o Enzym]: without enzyme
T1 construct: made in house; host or cells: E. coli BL21 (DE3), pET15b-Rlig1

[2] = DMSO; ref MedChemExpress; cited from earlier work
Rlig1-AMP [3] = target: T1, Rlig1-AMP; assay: Radioactive RNA ligation assay (hit validation, 10 µM test and IC50 determination); format: biochemical
in vitro = conditions: human
HEK293 cells [4] = assay: Light-microscopy of inhibitor- and menadione-treated HEK293 cells; format: cell-based, human; conditions: 30 µM compound 24 h, then menadione 5 h
HEK293 cells [5] = assay: Cell viability assay of HEK293 cells treated with inhibitors (CellTiter-Glo)
HEK293 cells [6] = assay: RNA integrity analysis of HEK293 cells treated with inhibitors and menadione (TapeStation 28S/18S rRNA); format: cell-based, human; conditions: 30 μM compound 24 h; Menadione 0 μM
[7] = test system: DNA methyltransferases (DNMTs); conditions: cited from earlier work
HEK293 cells [8] = assay: Cell viability assay of HEK293 cells treated with inhibitors and menadione; format: cell-based, human; conditions: inhibitor 24 h, then 40 μM menadione 5 h
[9] = as above; format: cell-based, human; conditions: human, HEK293 cells, 30 μM compound, 24 h, no menadione; read-out: cell viability without oxidative stress
[10] = DMSO; ref MedChemExpress; cited from earlier work; remark: listed apart in the source
[11] = test system: kinesin-like protein KIFC1 (HSET/KIFC1); design: method as in MedChemExpress; conditions: ref MedChemExpress; cited from earlier work
protein kinase C (PKC) = target: protein kinase C (PKC); design: method as in MedChemExpress; conditions: PKC activity; ref MedChemExpress; cited from earlier work
[12] = DMSO; ultrasonic/warming; ref MedChemExpress; cited from earlier work
PKC = test system: PKC; design: method as in MedChemExpress; conditions: ref MedChemExpress, cited from earlier work
[13] = difference of raw data without and with enzyme
[14] = difference of raw data w/o and w enzyme

T1 sequence (Q8N999 whole entry): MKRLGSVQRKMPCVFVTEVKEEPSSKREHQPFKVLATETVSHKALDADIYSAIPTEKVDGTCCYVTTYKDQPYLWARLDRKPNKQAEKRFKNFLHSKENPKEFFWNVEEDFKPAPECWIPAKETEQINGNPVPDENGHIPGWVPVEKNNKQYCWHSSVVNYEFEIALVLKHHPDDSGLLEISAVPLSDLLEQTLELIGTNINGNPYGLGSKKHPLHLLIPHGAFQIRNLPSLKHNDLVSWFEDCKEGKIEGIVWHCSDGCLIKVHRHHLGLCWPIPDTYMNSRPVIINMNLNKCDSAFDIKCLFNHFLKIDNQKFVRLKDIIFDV

SMILES: Cc1cc(Nc2ccc(NC(=O)c3ccc(Nc4ccnc5ccccc45)cc3)cc2)nc(N)n1 [Compound 1, SGI-1027, reference compound]
inhibition at 10 µM (Rlig1-AMP [1]; 10 μM compound, read-out: inhibition in HTS): > 70%
1-D Distance (Rlig1-AMP [1]; [14]): 390
Raw data [w Enyzm] (Rlig1-AMP [1]): 8456
Raw data [w/o Enzym] (Rlig1-AMP [1]): 8066
inhibition at 10 µM (Rlig1-AMP [3]; 10 µM compound, 37 °C, 20 min): > 70%
formation of the RNA-adenylate intermediate (Rlig1-AMP [3]; dose-response urea-PAGE (Fig. S3)): inhibited the formation of the RNA-adenylate intermediate
IC50 (Rlig1-AMP [3]; radioactive ligation assay, 500 nM Rlig1-AMP, 20 min 37 °C, n = 3, read-out: IC50): 3.96 µM
viability at 24 h, 0.234375 µM (in vitro): 113%
viability at 24 h, 0.46875 µM (in vitro): 103%
viability at 24 h, 0.9375 µM (in vitro): 104%
viability at 24 h, 1.875 µM (in vitro): 101%
viability at 24 h, 3.75 µM (in vitro): 91.9%
viability at 24 h, 7.5 µM (in vitro): 83.6%
viability at 24 h, 15 µM (in vitro): 60.5%
viability at 24 h, 30 µM (in vitro): 51%
cell morphology (HEK293 cells [4]): poor adherence and cell shrinkage
cytotoxicity (in words) (HEK293 cells [5]; HEK293, 24 h, up to 30 μM): moderate cytotoxicity
IC50 (Figure 3D: EC50 values for plot; log(inhibitor) vs. response -- Variable slope (four parameters)) (HEK293 cells [5]; HEK293 cell viability, fit per plate (3 plates, 4 technical replicates each), highest tested concentration 30 µM): 26.0265 µM and 22.3419 µM and 19.1567 µM
LogIC50 (log(inhibitor) vs. response -- Variable slope (four parameters)) (HEK293 cells [5]; HEK293 cell viability, fit per plate (3 plates, 4 technical replicates each), log of [µM]): 1.415 and 1.349 and 1.282
EC50 (HEK293 cells [5]; Homo sapiens, HEK293, 24 h): 23.2 µM
28S/18S ratio (HEK293 cells [6]): > 2
IC50 ([7]; DNMT1, poly(dI-dC) as substrate, ref MedChemExpress, read-out: IC50): 12.5 µM
IC50 ([7]; DNMT3A, poly(dI-dC) as substrate, ref MedChemExpress, read-out: IC50): 8 µM
IC50 ([7]; DNMT3B, poly(dI-dC) as substrate, ref MedChemExpress, read-out: IC50): 7.5 µM
IC50 ([7]; read-out: IC50 DNMTs): 6 to 13 µM
cell viability under oxidative stress (in words) (HEK293 cells [8]): almost complete loss of viability
viability at 24 h, 30 µM [9]: 50%
solubility [10]: 27 mg/mL and 58.50 mM

SMILES: CCCc1cc(C(=O)N[C@H](Cc2ccc(-c3cccc(OC(F)(F)F)c3)nc2)C(=O)N[C@@H]2CCNC2)sc1C [AZ82]
1-D Distance (Rlig1-AMP [1]; [14]): 670
1-D Distance.npi (Rlig1-AMP [1]; normalized value (npi)): 96.1946
Raw data [w Enyzm] (Rlig1-AMP [1]): 8773
Raw data [w/o Enzym] (Rlig1-AMP [1]): 9443
IC50 [11]: 0.3 µM
Ki [11]: 0.043 µM

SMILES: Cl.Cl.O=C1c2c(O)ccc(O)c2C(=O)c2c(NCCNCCO)ccc(NCCNCCO)c21 [Mitoxantrone (dihydrochloride)]
1-D Distance.npi (Rlig1-AMP [1]; MedChemExpress library): 101.642
1-D Distance (Rlig1-AMP [1]; [13]): 208
Raw data [w Enyzm] (Rlig1-AMP [1]): 3238
Raw data [w/o Enzym] (Rlig1-AMP [1]): 3030
IC50 (protein kinase C (PKC)): 8.5 µM

SMILES: CCCCC(=O)OCC(=O)[C@]1(O)Cc2c(O)c3c(c(O)c2[C@@H](O[C@H]2C[C@H](NC(=O)C(F)(F)F)[C@H](O)[C@H](C)O2)C1)C(=O)c1c(OC)cccc1C3=O [Valrubicin]
solubility, DMSO [12]: 125 mg/mL and 172.74 mM
1-D Distance (Rlig1-AMP [1]; [14]): 1660
Raw data [w Enyzm] (Rlig1-AMP [1]): 2541
Raw data [w/o Enzym] (Rlig1-AMP [1]): 4201
IC50 (PKC; PDBu-induced, read-out: IC50, PDBu-induced PKC activation): 1.25 µM
IC50 (PKC; TPA-induced, read-out: IC50, TPA-induced PKC activation): 0.85 µM

Second part, led by results:

1-D Distance (Rlig1-AMP [1]; [13]): 1736
Raw data [w Enyzm] (Rlig1-AMP [1]): 4442
Raw data [w/o Enzym] (Rlig1-AMP [1]): 6178
SMILES: O=C(O)c1cc(O)c2c(c1)[C@H]([C@H]1c3cc(C(=O)O)cc(O)c3C(=O)c3c(O[C@@H]4O[C@H](CO)[C@@H](O)[C@H](O)[C@H]4O)cccc31)c1cccc(O[C@@H]3O[C@H](CO)[C@@H](O)[C@H](O)[C@H]3O)c1C2=O [Sennoside A]
solubility [2]: 250 mg/mL and 289.77 mM

1-D Distance (Rlig1-AMP [1]; [14]): 1108
Raw data [w Enyzm] (Rlig1-AMP [1]): 3598
Raw data [w/o Enzym] (Rlig1-AMP [1]): 4706
SMILES: O=C(O)c1cc(O)c2c(c1)[C@@H]([C@H]1c3cc(C(=O)O)cc(O)c3C(=O)c3c(O[C@@H]4O[C@H](CO)[C@@H](O)[C@H](O)[C@H]4O)cccc31)c1cccc(O[C@@H]3O[C@H](CO)[C@@H](O)[C@H](O)[C@H]3O)c1C2=O [Sennoside B]
solubility, DMSO [12]: 125 mg/mL and 144.89 mM
